The values that follow are results of earlier work, collected in patent US20210330644A1, “COMBINATION THERAPY FOR TREATING METASTATIC PROSTATE CANCER” (Progenics Pharmaceuticals, Inc, priority 2018, published 2021).

In this data set the test system is mCRPC.

As for `CNC(=O)c1ccc(N2C(=S)N(c3ccc(C#N)c(C(F)(F)F)c3)C(=O)C2(C)C)cc1F` [enzalutamide], the “proportion of patients with >50% decline in PSA from baseline” value (after progression under abiraterone therapy of any duration) is 30-51%. Besides, where the note is “majority of data”, the “benefit in abiraterone-resistant patients” value is “limited benefit”.
